Reference: patent publication US20230286973A1, “PROTEIN SECRETION INHIBITORS” (KEZAR LIFE SCIENCES, priority 2020, published 2023)
Read-outs that look alike come from different tables or passages of the source.

What was measured:
[1] = Liver Microsome Stability Assay (monkey); settings: monkey liver microsomes, with NADPH, 1.0 uM compound
Experimental: (§1) Stability of a compound was assessed in the presence of liver microsomes from various sources—mouse, rat, monkey and human liver microsomes. 1.0 uM compound, 0.4% DMSO in 0.1 M Potassium Phosphate with 1.0 mg/mL liver microsomes, were incubated at 37° C. with or without 1 mM NADPH. The samples were quenched at 0, and 30 minutes.

[2] = test system: PD1-ss+10aa/Gaussia Luciferase; assay: Dox-Induced PD1-ss-Gluc Assay; assay type: cell-based
Summary of the method: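 The cell line was made by transfecting Flp-In 293 T-REx cells with a PD1 signal sequence+10aa–Gaussia luciferase fusion under T-REx control and selecting with hygromycin and blasticidin. Cells were seeded, and next day compound plus doxycycline was added at 37 °C, 5% CO2.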

[3] = Liver Microsome Stability Assay (rat); settings: rat liver microsomes, with NADPH, 1.0 uM compound
Experimental: as §1

[4] = test system: multiple myeloma cell line U266B1; assay: U266 Cell Viability Assay; assay type: cell-based, human; settings: Homo sapiens, U266B1 cells, Celltiter-Glo
Summary of the method: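 U266B1 multiple myeloma cells in RPMI 1640/10% FBS were treated with compound dilutions for 48 h at 37 °C, 5% CO2. Viability was measured by CellTiter-Glo luminescence; compounds drawn without stereochemistry were tested as stereoisomer mixtures.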

[5] = Liver Microsome Stability Assay (human); settings: human liver microsomes, with NADPH, 1.0 uM compound
Experimental: as §1

[6] = test system: TNFα-FL/Gaussia Luciferase; assay: Dox Induced TNFα-FL-Gluc Assay; assay type: cell-based; settings: for IC50: 24 hr Dox induction, 293FRT/TO cells, read-out: 24 hr Dox Inducible TNFaFLGluc 293FRT/TO: Mean IC50; for 24 hr Dox Inducible TNFaFLGluc 293FRT/TO: TNF/PD1: ratio of TNFaFLGluc IC50 to PD1ssGluc IC50
Summary of the method: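 Flp-In 293 T-REx cells stably carrying doxycycline-inducible full-length TNFα (aa 1-233) fused to Gaussia luciferase. Plated the day before, then treated with compound dilutions in doxycycline-containing medium at 37° C, 5% CO2.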

[7] = test system: HER3-ss+4aa/Gaussia Luciferase; assay: Dox-Induced Her3-ss-Gluc Assay; assay type: cell-based
Summary of the method: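 Stable Flp-In 293 T-REx cells carried a doxycycline-inducible HER3 signal sequence (+4 aa) fused to Gaussia luciferase. Cells were plated the day before the assay. Compound dilutions in DMSO/media containing doxycycline were then added, and plates were incubated at 37 °C, 5% CO2.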

[8] = Liver Microsome Stability Assay (mouse); settings: mouse liver microsomes, with NADPH, 1.0 uM compound
Experimental: as §1

[9] = test system: multiple myeloma cell line NCI-H929; assay: H929 Cell Viability Assay; assay type: cell-based, human; settings: Homo sapiens, NCI-H929 cells, Celltiter-Glo
Summary of the method: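 NCI-H929 cells in RPMI 1640 with 10% FBS were treated with compound dilutions for 48 h at 37° C, 5% CO2. Viability was read by CellTiter-Glo luminescence. Undefined stereocentres denote stereoisomer mixtures.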

[10] = test system: IL-2-FL/Gaussia Luciferase; assay: Dox Induced IL2-FL-Gluc Assay; assay type: cell-based; settings: for IC50: 24 hr Dox induction, 293FRT/TO cells, read-out: 24 hr Dox Inducible IL2FLGluc 293FRT/TO: Mean IC50; for 24 hr Dox Inducible IL2FLGluc 293FRT/TO: IL2/PD1: ratio of IL2FLGluc IC50 to PD1ssGluc IC50
Summary of the method: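 Stable Flp-In 293 T-REx cells carrying doxycycline-inducible full-length IL-2 (aa 1-153) fused to Gaussia luciferase, plated the day before assay. Compound dilutions added in medium containing doxycycline, incubated at 37 °C, 5% CO2. Undefined stereocentres mean data refer to stereoisomer mixtures.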

[11] = 24 hr Dox induction; 293FRT/TO cells; mean; read-out: 24 hr Dox Inducible PD1ssGluc 293FRT/TO: Mean IC50
[12] = '<=>' given where both are I.A.
[13] = 24 hr Dox induction; 293FRT/TO cells; mean; read-out: 24 hr Dox Inducible Her3(ss + 4)Gluc 293FRT/TO: Mean IC50
[14] = 24 hr Dox induction; 293FRT/TO cells; read-out: 24 hr Dox Inducible PD1ssGluc 293FRT/TO: Mean IC50
[15] = 24 hr Dox induction; 293FRT/TO cells; read-out: 24 hr Dox Inducible Her3(ss + 4)Gluc 293FRT/TO: Mean IC50

Liver Microsome Stability (Multiple Species): Monkey - % Remaining after 30 min w/NADPH [1] | IC50 [2, 11] | Liver Microsome Stability (Multiple Species): Rat - % Remaining after 30 min w/NADPH [3] | EC50 ([4]; U-266, 48 h) | Liver Microsome Stability (Multiple Species): Human - % Remaining after 30 min w/NADPH [5] | IC50 ([6]; mean) | IC50 [7, 13] | Liver Microsome Stability (Multiple Species): Mouse - % Remaining after 30 min w/NADPH [8] | EC50 ([9]; NCI-H929, 48 h) | IC50 ([10]; mean) | IC50 [2, 14] | IC50 [6] | IC50 [7, 15] | IC50 [10] | SMILES | 24 hr Dox Inducible TNFaFLGluc 293FRT/TO: TNF/PD1 [6, 12] | 24 hr Dox Inducible IL2FLGluc 293FRT/TO: IL2/PD1 [10, 12] | 24 hr Dox Inducible TNFaFLGluc 293FRT/TO: TNF/PD1 [6] | 24 hr Dox Inducible IL2FLGluc 293FRT/TO: IL2/PD1 [10] | also measured
1.77% | 1.65 µM | 7.22% | > 25 µM | 1.77% | 16.1 µM | 2.39 µM | 1.54% | > 25 µM | 4.01 µM |  |  |  |  | CC(CCC#N)n1cccc1C(=O)Nc1nc([C@H]2CCCN2c2ccccc2)cs1 (stereo partly drawn) [Compound C90, 1-(4-cyanobutan-2-yl)-N-(4-((R)-1-phenylpyrrolidin-2-yl)thiazol-2-yl)-1H-pyrrole-2-carboxamide] | 9.76 | 2.4 |  |  | 
0.12% |  | 7.32% | > 25 µM | 1.04% |  |  | 0.42% | 12.4 µM |  | 0.284 µM | 4 µM | 0.406 µM | 0.64 µM | CC(=O)N1CCC(C(C)c2ccc(N3CCC[C@@H]3c3csc(NC(=O)c4cccn4Cc4ccnc(F)c4)n3)cc2)CC1 (stereo partly drawn) [Compound A161, N-(4-((2R)-1-(4-(1-(1-acetylpiperidin-4-yl)ethyl)phenyl)pyrrolidin-2-yl)thiazol-2-yl)-1-((2-fluoropyridin-4-yl)methyl)-1H-pyrrole-2-carboxamide] |  |  | 14.1 | 2.3 | 
0.03% |  | 0.54% | > 25 µM | 0.04% |  |  | 0.08% | > 25 µM |  | 0.782 µM | > 25 µM | > 25 µM | > 25 µM | CC(C)n1ccnc1/C=C/c1csc(NC(=O)c2cccn2Cc2ccnc(F)c2)n1 [Compound B95, (E)-1-((2-fluoropyridin-4-yl)methyl)-N-(4-(2-(1-isopropyl-1H-imidazol-2-yl)vinyl)thiazol-2-yl)-1H-pyrrole-2-carboxamide] |  |  | >32.0 | >32 | 
0.13% |  | 10.8% | > 25 µM | 0.3% |  |  | 13.8% | > 25 µM |  | 0.244 µM | > 25 µM | 4.79 µM | 7.51 µM | CC1CCn2cnc(/C=C/c3csc(NC(=O)c4cccn4Cc4ccnc(F)c4)n3)c2C1 (stereo not drawn) [Compound B97, (E)-1-((2-fluoropyridin-4-yl)methyl)-N-(4-(2-(7-methyl-5,6,7,8-tetrahydroimidazo[1,5-a]pyridin-1-yl)vinyl)thiazol-2-yl)-1H-pyrrole-2-carboxamide] |  |  | >103 | 31 | 
0.38% | 4.56 µM | 8.24% | > 25 µM | 3.68% | > 25 µM | 6.1 µM | 0.81% | > 25 µM | 7.54 µM |  |  |  |  | N#CCC1(Cn2cccc2C(=O)Nc2nc([C@H]3CCCN3c3ccccc3)cs2)CCC1 [Compound C9, (R)-1-((1-(cyanomethyl)cyclobutyl)methyl)-N-(4-(1-phenylpyrrolidin-2-yl)thiazol-2-yl)-1H-pyrrole-2-carboxamide] | >5.49 | 1.7 |  |  | 
0.19% | 0.802 µM | 2.04% | > 25 µM | 1.3% | > 25 µM | 1.28 µM | 6.59% | 23.6 µM | 1.69 µM |  |  |  |  | N#Cc1cc(Cn2cccc2C(=O)Nc2nc([C@H]3CCCN3c3ccccc3)cs2)ccn1 [Compound E60, (R)-1-((2-cyanopyridin-4-yl)methyl)-N-(4-(1-phenylpyrrolidin-2-yl)thiazol-2-yl)-1H-pyrrole-2-carboxamide] | >31.2 | 2.1 |  |  | 
10.6% | 3.59 µM | 20.7% | > 25 µM | 63.4% | > 25 µM | 2.4 µM | 52.1% | > 25 µM | 3.66 µM |  |  |  |  | O=C(Nc1nc([C@H]2CCCN2c2ccccc2)cs1)c1cccn1CC1CC(F)(F)C1 [Compound C94, (R)-1-((3,3-difluorocyclobutyl)methyl)-N-(4-(1-phenylpyrrolidin-2-yl)thiazol-2-yl)-1H-pyrrole-2-carboxamide] | >6.97 | 1 |  |  | 

SMILES | Liver Microsome Stability (Multiple Species): Monkey - % Remaining after 30 min w/NADPH [1] | IC50 [2, 11] | Liver Microsome Stability (Multiple Species): Rat - % Remaining after 30 min w/NADPH [3] | EC50 ([4]; U-266, 48 h) | Liver Microsome Stability (Multiple Species): Human - % Remaining after 30 min w/NADPH [5] | IC50 ([6]; mean) | IC50 [7, 13] | Liver Microsome Stability (Multiple Species): Mouse - % Remaining after 30 min w/NADPH [8] | EC50 ([9]; NCI-H929, 48 h) | IC50 ([10]; mean) | IC50 [2, 14] | IC50 [6] | IC50 [7, 15] | IC50 [10] | 24 hr Dox Inducible TNFaFLGluc 293FRT/TO: TNF/PD1 [6, 12] | 24 hr Dox Inducible IL2FLGluc 293FRT/TO: IL2/PD1 [10, 12] | 24 hr Dox Inducible TNFaFLGluc 293FRT/TO: TNF/PD1 [6] | 24 hr Dox Inducible IL2FLGluc 293FRT/TO: IL2/PD1 [10] | also measured
O=C(Nc1nc([C@H]2CCCN2c2ccc(OC3CCN(C(=O)CF)CC3)cc2)cs1)c1cccn1Cc1ccnc(F)c1 [Compound A90, (R)-N-(4-(1-(4-((1-(2-fluoroacetyl)piperidin-4-yl)oxy)phenyl)pyrrolidin-2-yl)thiazol-2-yl)-1-((2-fluoropyridin-4-yl)methyl)-1H-pyrrole-2-carboxamide] | 1.3% |  | 39.1% |  | 22.3% |  |  | 21.7% |  |  |  | 0.512 µM |  | 0.0829 µM |  |  | 12.4 | 2 | IC50 ([2]; read-out: 24 hr Dox Inducible PD1ssGluc 293FRT/TO: Mean IC50; 24 hr Dox induction; 293FRT/TO cells): 0.0415 µM; EC50 ([4]; U-266, 48 hr): > 25 µM; IC50 ([7]; read-out: 24 hr Dox Inducible Her3(ss + 4)Gluc 293FRT/TO: Mean IC50; 24 hr Dox induction; 293FRT/TO cells): 0.0828 µM; EC50 ([9]; 48 hr): 1.08 µM
